“Also recorded” adds a separate entry of the source. Marks after values point to notes of the source that are not given here.
Experiments:
[1] = tested on: Chinese hamster lung (CHL) cell; assay: Chromosomal aberration test; assay type: cell-based; settings: for induction of chromosomal aberration: CHL cell
Excerpt: For measuring the induction of chromosomal aberration, the chromosomal aberration test has been carried out using Chinese hamster lung (CHL) cell. 2 kinds of methods have been adopted, such as, metabolic activation method (+S9) using metabolic activation system and direct method (−S9) without metabolic activation system.
For determining the test material reacting concentration, the cell growth inhibition test has been carried out. The test material has been dissolved and diluted in dimethyl sulfoxide (DMSO). Regardless of metabolic activation system, 12 concentration steps (2.43, 4.87, 9.75, 19.5, 39.1, 78.1, 156.3, 312.5, 625, 1250, 2500, 5000 μg/ml) of test material have been prepared. The cells have been cultured for 24 hours as the same way of main test. […] The medium has been further cultured for 18 hours.
Based upon the data of cell growth inhibition test, maximum concentration has been determined when the cell growth has been inhibited up to 50% as the relative cell numbers.
Regardless of metabolic activation system, the test materials have been prepared after 24 hours from the initiation of test. Then, the number of chromosomal aberration has been counted.

[2] = tested on: HCl-Ethanol inducing gastritis model; assay: HCl-Ethanol inducing gastritis model; assay type: in vivo, white rats; settings: for Lesion inhibition rate: Table 2, ineffective compounds, dose not given; for ED50: regression analysis, read-out: 50% effective dose (ED50)
Procedure: After white rats have been fasted for 24 hours, CD-101, CD-102 and CD-103 compound have been orally administered according to method disclosed in Mizui et al., Jap. J. Pharmacol. 33: pp. 939-945 (1983). After 1 hour, 1.5 ml of 60% ethanol including 150 mM HCl has been orally administered to each animal. 1 hour later, animals have been sacrificed by cervical dislocation. After removing the stomach, the stomach has been fixed by injection of 13 ml of 2% formalin for 1 hour. After fixed stomach has been spread out, the lesion area has been measured using the photo by digital camera. Computer program Image J 1.38 (NIH, Bethesda, Md.) has been applied for measuring gastric lesion area (mm^2). The lesion inhibition rate has been calculated according to following equation. Further, 50% effective dose (ED50) has been also calculated using regression analysis.
Lesion inhibition rate(%)={gastric lesion area of control group(mm^2)−gastric lesion area of drug administration group(mm^2)}/gastric lesion area of control group(mm^2)×100

[3] = tested on: indomethacin inducing stomach ulcer model; assay: indomethacin inducing stomach ulcer model; assay type: in vivo, white rats; settings: oral; for ED50: regression analysis, read-out: 50% effective dose (ED50)
Procedure: After white rats have been fasted for 24 hours, CD-101, CD-102 and CD-103 compound have been orally administered according to method disclosed in Yamasaki et al., Jap. J. Pharmacol. 49: pp. 441-448 (1989). After 1 hour, indomethacin (50 mg/kg) has been orally administered to each animal. After fasting for 5 hours, animals have been sacrificed by cervical dislocation. After removing the stomach, the stomach has been fixed by injection of 13 ml of 2% formalin for 1 hour. After fixed stomach has been spread out, the lesion area has been measured using the photo by digital camera. Computer program Image J 1.38 (NIH, Bethesda, Md.) has been applied for measuring gastric lesion area (mm^2). The lesion inhibition rate and 50% effective dose (ED50) have been calculated as the same manner of HCl-EtOH model.

[4] = Rattus norvegicus, oral, dose 1 mg/kg, read-out: Lesion inhibition rate
[5] = Rattus norvegicus, oral, dose 3 mg/kg, read-out: Lesion inhibition rate
[6] = Rattus norvegicus, oral, dose 10 mg/kg, read-out: Lesion inhibition rate
[7] = Rattus norvegicus, dose 1 mg/kg, read-out: Lesion inhibition rate
[8] = Rattus norvegicus, dose 3 mg/kg, read-out: Lesion inhibition rate
[9] = Rattus norvegicus, dose 10 mg/kg, read-out: Lesion inhibition rate

In the case of `CC(=O)O[C@@H]1/C=C(\C)CCC/C(C)=C/[C@H]2OC(=O)[C@H](CN(C)C)C12` (stereo partly drawn) [reference compound], the “Result (chromosomal aberration test)” value ([1]; Table 5, + S9) is reported as “positive positive” and the “Result (chromosomal aberration test)” value ([1]; Table 5, − S9) is reported as “positive positive”.

With `CC1=C2C3OC(=O)[C@@H](C)[C@@H]3CC[C@@]2(C)C=CC1=O` (stereo partly drawn) the Lesion inhibition rate [2] was “no effect”.

For `CO[C@@]12[C@H](COC(N)=O)C3=C(C(=O)C(C)=C(N)C3=O)N1C[C@@H]1N[C@@H]12` [Mitomycin C, reference compound], the “Results (chromosomal aberration)” value ([1]; −S9, dose 0.5 μg/ml) was “positive”.

In the case of `CO[C@]1(C)CC[C@H]2C(CN(C)CCO)C(=O)O[C@@H]2[C@@H]2[C@H]1CC[C@@]2(C)O` (stereo partly drawn), the Lesion inhibition rate [2] is reported as “no effect”.

`C=C1C(=O)O[C@@H]2[C@@H]3[C@@H](CC[C@@]3(C)O)[C@](C)(OC)CC[C@@H]12` [CD-103] showed an inhibition at 30 mg/kg ([2]; Rattus norvegicus, oral, 30 mg/kg administration group, read-out: lesion inhibition rate) of 99.5%, an inhibition at 1 mg/kg [2, 4] of 56.9% and an inhibition at 3 mg/kg [2, 5] of 66.9%. For the same compound, the inhibition at 10 mg/kg [2, 6] was 99.5%, the ED50 ([2]; Rattus norvegicus, oral) was 2.55 mg/kg and the Gastric lesion area ([2]; oral, dose 1 mg/kg) was 80.8 ± 19.4* mm^2. For the same compound, the Gastric lesion area ([2]; oral, dose 3 mg/kg) was 62.1 ± 32.2* mm^2, the Gastric lesion area ([2]; oral, dose 10 mg/kg) was 1.0 ± 0.4* mm^2 and the inhibition at 1 mg/kg [3, 7] was 37.9%. For the same compound, the inhibition at 3 mg/kg [3, 8] was 57.3%, the inhibition at 10 mg/kg [3, 9] was 74% and the ED50 ([3]; Rattus norvegicus) was 2.06 mg/kg. For the same compound, the Gastric lesion area ([3]; dose 1 mg/kg) was 37.2 ± 7.0 mm^2, the Gastric lesion area ([3]; dose 3 mg/kg) was 25.6 ± 4.7* mm^2 and the Gastric lesion area ([3]; dose 10 mg/kg) was 15.6 ± 3.1* mm^2. For the same compound, the “Results (chromosomal aberration)” value ([1]; +S9, dose 2.5 μg/ml) was “negative”, the “Results (chromosomal aberration)” value ([1]; +S9, dose 5 μg/ml) was “negative” and the “Results (chromosomal aberration)” value ([1]; +S9, dose 10 μg/ml) was “negative”. The “induction of chromosomal aberration” value [1] was “do not induce the chromosomal aberration”, the “Results (chromosomal aberration)” value ([1]; −S9, dose 0.625 μg/ml) was “negative” and the “Results (chromosomal aberration)” value ([1]; −S9, dose 1.25 μg/ml) was “negative”. The “Results (chromosomal aberration)” value ([1]; −S9, dose 2.5 μg/ml) was “negative”.

`C=C1C(=O)O[C@@H]2/C=C(\C)CC/C=C(\C)C[C@@H](OC(C)=O)C12` (stereo partly drawn) [reference compound] was tested, and the “Result (chromosomal aberration test)” value ([1]; Table 5, + S9) was “positive positive” and the “Result (chromosomal aberration test)” value ([1]; Table 5, − S9) was “positive positive”.

`C=C1CC[C@H]2C(=C)C(=O)O[C@@H]2C2[C@H]1CC[C@@]2(C)O` (stereo partly drawn) [CD-102] showed an inhibition at 1 mg/kg [2, 4] of 43%, an inhibition at 3 mg/kg [2, 5] of 70.4% and an inhibition at 10 mg/kg [2, 6] of 94.9%. The ED50 ([2]; Rattus norvegicus, oral) was 1.31 mg/kg, the Gastric lesion area ([2]; oral, dose 1 mg/kg) was 133.5 ± 21.0* mm^2 and the Gastric lesion area ([2]; oral, dose 3 mg/kg) was 69.4 ± 18.4* mm^2. For the same compound, the Gastric lesion area ([2]; oral, dose 10 mg/kg) was 11.9 ± 10.0* mm^2, the inhibition at 1 mg/kg [3, 7] was 41.6% and the inhibition at 3 mg/kg [3, 8] was 56.1%. The inhibition at 10 mg/kg [3, 9] was 77.2%, the ED50 ([3]; Rattus norvegicus) was 1.82 mg/kg and the Gastric lesion area ([3]; dose 1 mg/kg) was 35.0 ± 5.2 mm^2. The Gastric lesion area ([3]; dose 3 mg/kg) was 26.3 ± 6.8* mm^2, the Gastric lesion area ([3]; dose 10 mg/kg) was 13.6 ± 2.9* mm^2 and the “Results (chromosomal aberration)” value ([1]; +S9, dose 5 μg/ml) was “negative”. For the same compound, the “Results (chromosomal aberration)” value ([1]; +S9, dose 10 μg/ml) was “negative”, the “Results (chromosomal aberration)” value ([1]; +S9, dose 20 μg/ml) was “negative” and the “induction of chromosomal aberration” value [1] was “do not induce the chromosomal aberration”. For the same compound, the “Results (chromosomal aberration)” value ([1]; −S9, dose 1.25 μg/ml) was “negative”, the “Results (chromosomal aberration)” value ([1]; −S9, dose 2.5 μg/ml) was “negative” and the “Results (chromosomal aberration)” value ([1]; −S9, dose 5 μg/ml) was “negative”.

With `CO[C@]1(C)CC[C@H]2C(CN(C)CCO)C(=O)O[C@@H]2[C@@H](O)[C@]2(C)CC[C@H]21` (stereo partly drawn) the Lesion inhibition rate [2] was “no effect”.

`C=C1CC[C@@H]2[C@](C)(CO)[C@H](O)CC[C@@]2(C)[C@@H]1C/C=C1/C(=O)OC[C@H]1O` was tested, and the Lesion inhibition rate [2] was “no effect”.

In the case of `C=C1C(=O)O[C@@H]2[C@@H](O)[C@]3(C)CC[C@H]3[C@](C)(OC)CC[C@@H]12` [CD-101], the inhibition at 1 mg/kg [2, 4] is reported as 42.3%, the inhibition at 3 mg/kg [2, 5] is reported as 74.7% and the inhibition at 10 mg/kg [2, 6] is reported as 91.8%. For the same compound, the ED50 ([2]; Rattus norvegicus, oral) was 1.24 ± 0.1 mg/kg, the Gastric lesion area ([2]; oral, dose 1 mg/kg) was 135.1 ± 43.1 mm^2 and the Gastric lesion area ([2]; oral, dose 3 mg/kg) was 59.3 ± 23.5* mm^2. For the same compound, the Gastric lesion area ([2]; oral, dose 10 mg/kg) was 19.2 ± 11.7* mm^2, the inhibition at 1 mg/kg [3, 7] was 26.9% and the inhibition at 3 mg/kg [3, 8] was 56.6%. For the same compound, the inhibition at 10 mg/kg [3, 9] was 73.1%, the ED50 ([3]; Rattus norvegicus) was 2.78 ± 0.1 mg/kg and the Gastric lesion area ([3]; dose 1 mg/kg) was 43.8 ± 7.7 mm^2. The Gastric lesion area ([3]; dose 3 mg/kg) was 26.0 ± 4.7* mm^2, the Gastric lesion area ([3]; dose 10 mg/kg) was 16.1 ± 4.8* mm^2 and the “Results (chromosomal aberration)” value ([1]; +S9, dose 10 μg/ml) was “negative”. The “Results (chromosomal aberration)” value ([1]; +S9, dose 20 μg/ml) was “negative”, the “Results (chromosomal aberration)” value ([1]; +S9, dose 40 μg/ml) was “negative” and the “induction of chromosomal aberration” value [1] was “neither cytotoxicity nor chromosomal aberration; also recorded: do not induce the chromosomal aberration”. The “Results (chromosomal aberration)” value ([1]; −S9, dose 2.5 μg/ml) was “negative”, the “Results (chromosomal aberration)” value ([1]; −S9, dose 5 μg/ml) was “negative” and the “Results (chromosomal aberration)” value ([1]; −S9, dose 10 μg/ml) was “negative”.

`C=C1C(=O)O[C@@H]2/C=C(\C)CCC(O)C(C)(O)C[C@@H](OC(C)=O)C12` (stereo partly drawn) [reference compound] was tested, and the “Result (chromosomal aberration test)” value ([1]; Table 5, + S9) was “positive positive” and the “Result (chromosomal aberration test)” value ([1]; Table 5, − S9) was “positive positive”.

In the case of `CN(C)c1ccc(/C=C2\CCOC2=O)cc1`, the Lesion inhibition rate [2] is reported as “no effect”.

In the case of `O=C(NC(Cc1cc(=O)[nH]c2ccccc12)C(=O)O)c1ccc(Cl)cc1` (stereo not drawn) [Rebamipide, reference compound], the inhibition at 50 mg/kg ([2]; Rattus norvegicus, oral, dose 50 mg/kg, read-out: Lesion inhibition rate) is reported as 30%, the Gastric lesion area ([2]; oral, dose 50 mg/kg) is reported as 163.9 ± 15.6 mm^2 and the inhibition at 50 mg/kg ([3]; Rattus norvegicus, dose 50 mg/kg, read-out: Lesion inhibition rate) is reported as 49.6%. The Gastric lesion area ([3]; dose 50 mg/kg) was 30.2 ± 6.4* mm^2.

In the case of `CC(C)=C1C(=O)COC1=O`, the Lesion inhibition rate [2] is reported as “no effect”.
